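96-well plates; 48 h exposure; 5 concentrations. Endpoints by linear interpolation between flanking doses. Not reached: highest tested concentration assigned. TGI: total growth inhibition.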
Tests used:
Test in all cases: inhibition of tumour cell growth, NCI panel, 48 h
[1] = system: SN12C renal
[2] = system: OVCAR-5 ovarian
[3] = system: SF-539 CNS
[4] = system: M14 melanoma
[5] = system: CCRF-CEM leukemia
[6] = system: MDA-N
[7] = system: HOP-62 NSCLC
[8] = system: SNB-19 CNS
[9] = system: K-562 leukemia
[10] = system: OVCAR-8 ovarian

Structure (SMILES)	TGI [1]	TGI [2]	TGI [3]	TGI [4]	TGI [5]	TGI [6]	TGI [7]	TGI [8]	TGI [9]	TGI [10]
N#Cc1c(-c2ccc(Cl)cc2)c2c(n(C3OC(CO)C(O)C(O)C3O)c1=S)CCC2 (stereo not drawn)	> 100 µM	> 100 µM	42.3 µM	47.2 µM	56.7 µM	> 100 µM	57 µM	71 µM	38.5 µM	–
C=C(CO[Si](C)(C)C(C)(C)C)C(C)=O	> 68.5 µM	86.2 µM	> 62.2 µM	27.5 µM	9.01 µM	32.3 µM	> 100 µM	> 100 µM	> 52.4 µM	37.5 µM
O=C(Cn1c(C(=O)/C=C/c2cccs2)nc2ccccc21)c1ccc(Cl)cc1	50.1 µM	> 100 µM	> 100 µM	40.7 µM	–	56.7 µM	> 100 µM	> 100 µM	45.7 µM	–
CCOC(=O)c1cnc2oc3ccc(O)cc3c2c1-c1ccccc1	> 100 µM	> 100 µM	46.5 µM	> 100 µM	> 100 µM	> 100 µM	–	> 100 µM	> 100 µM	> 100 µM
CCOC(=O)C(NC(=O)CC)(Nc1cc(C)on1)C(F)(F)F (stereo not drawn)	> 100 µM	> 100 µM	> 100 µM	> 100 µM	> 100 µM	> 100 µM	–	> 100 µM	> 100 µM	> 100 µM
COc1cc(/C=C2\Sc3scc(-c4cccc([N+](=O)[O-])c4)[n+]3C2=O)cc(OC)c1OC	42.5 µM	55.6 µM	24.2 µM	23.9 µM	90.6 µM	27.1 µM	36.1 µM	46.5 µM	> 100 µM	> 100 µM
CC(C)C(OC(=O)c1ccc(NCc2cc(O)ccc2O)cc1)C(C)C	11.9 µM	6.16 µM	2.47 µM	6.93 µM	0.589 µM	12.9 µM	21.7 µM	7.06 µM	4.12 µM	3.77 µM
COC1OC2COC1(OC)C1OC(C)(C)OC21 (stereo not drawn)	> 100 µM	> 100 µM	–	> 100 µM	> 100 µM	> 100 µM	> 100 µM	> 100 µM	> 100 µM	> 100 µM
CC(=O)Oc1c2oc3ccc(Cl)cc3c(=O)c2c(O)c2ccsc12	> 100 µM	> 100 µM	> 100 µM	> 100 µM	> 100 µM	> 100 µM	> 100 µM	> 100 µM	> 100 µM	> 100 µM
Nc1ccccc1CC(O)C(=O)O (stereo not drawn)	> 100 µM	> 100 µM	> 100 µM	> 100 µM	> 100 µM	> 100 µM	> 100 µM	> 100 µM	> 100 µM	> 100 µM
CC1CC/C(=C\c2ccc(Cl)cc2)C2OC(N)=C(C#N)C(c3ccc(Cl)cc3)=C12 (stereo not drawn)	26.5 µM	37.5 µM	28 µM	39 µM	31.2 µM	32.2 µM	9.84 µM	39.6 µM	51.8 µM	27.4 µM
CCN(C(=S)N[C@H](C(=O)N[C@@H](C)C(=O)OC)C(C)C)c1ccccc1	> 100 µM	> 100 µM	84.3 µM	> 100 µM	> 100 µM	> 100 µM	> 100 µM	> 100 µM	80.2 µM	> 100 µM
OC(CCNCc1ccccc1)c1ccc2ccccc2c1 (stereo not drawn)	72.2 µM	75.4 µM	31.9 µM	> 100 µM	> 100 µM	–	33.5 µM	47.9 µM	50.9 µM	45.9 µM
CC1=NN(c2nc(N)nc(/C(C#N)=C/c3cccn3-c3cc(Cl)cc(Cl)c3)n2)C(C)(C)C1	> 100 µM	> 100 µM	> 100 µM	> 100 µM	> 100 µM	> 100 µM	67.3 µM	> 100 µM	–	> 100 µM
CCNC(=O)c1cc(/C=C/c2ccc([N+](=O)[O-])o2)nc2ccccc12	> 100 µM	> 100 µM	> 100 µM	14.5 µM	> 100 µM	–	> 100 µM	> 100 µM	> 100 µM	> 100 µM
O=C(Nc1ccccc1)N(CCCCN(Cc1ccccc1)C(=O)Nc1ccccc1)Cc1ccccc1	> 100 µM	> 100 µM	–	> 100 µM	> 100 µM	> 100 µM	> 100 µM	> 100 µM	> 100 µM	> 100 µM
NNC(=O)Cn1c2ccc(Br)cc2c2nc3ccccc3nc21	> 100 µM	> 100 µM	> 100 µM	> 100 µM	–	> 100 µM	89.8 µM	> 100 µM	> 100 µM	> 100 µM
COC(=O)C(Cc1ccccc1)NP(=O)(O)OCC1OC(n2cc(F)c(=O)[nH]c2=O)CC1O (stereo not drawn)	> 100 µM	> 100 µM	63.9 µM	> 100 µM	–	> 100 µM	> 100 µM	> 100 µM	> 100 µM	> 100 µM
O=c1c2cc(I)ccc2nc(-c2cccs2)n1-c1ccc(O)cc1	40.7 µM	30.2 µM	14.5 µM	29.3 µM	–	62.8 µM	32.4 µM	38.8 µM	> 100 µM	29.4 µM
C(CCCCc1nnc(N2CCCCC2)o1)CCCc1nnc(N2CCCCC2)o1	> 100 µM	> 100 µM	> 100 µM	> 100 µM	> 100 µM	–	> 100 µM	> 100 µM	> 100 µM	> 100 µM
CCN(CC)c1ccc2cc(C(=O)Nc3cccc4ccccc34)c(=N)oc2c1	> 100 µM	> 100 µM	> 100 µM	> 100 µM	> 100 µM	> 100 µM	–	> 100 µM	> 100 µM	> 100 µM
O=c1ccn(CC2(CO)CC(Cc3ccccc3)C2)c(=O)[nH]1 (stereo not drawn)	> 100 µM	> 100 µM	> 100 µM	–	> 100 µM	> 100 µM	> 100 µM	–	> 100 µM	> 100 µM
